From EP4578939A1, “MYC[…]. BASED ON VARIOUS CARBON-NITROGEN METABOLIC […], METHOD FOR ISOLATING SAME, AND USE THEREOF” (Peng, Guanghao, priority 2022, dated 2024) come the findings set out here.

Where two headings read alike, the source gives them in different places.

The subject of assay [1] is Mycobacterium sp. with deposit number of CGMCC No.21273. Put plainly: BIOLOG GEN III growth experiments. The class given is cell-based. Particulars: growth on the substance; strain CGMCC No.21273 (JD).
In assay [2] the test system is Mycobacterium sp. with the deposit number CGMCC No.21272. Put plainly: BIOLOG GEN III growth experiments. The class given is cell-based. The conditions noted are these: growth on the substance; strain CGMCC No.21272 (YT).
The test system is the same in assay [3]. In words: BIOLOG chemically sensitive experiments. It is filed as cell-based. Particulars: strain CGMCC No.21272 (YT).
For assay [4], the system named is Mycobacterium sp. with deposit number of CGMCC No.21273. In words: BIOLOG chemically sensitive experiments. The class given is cell-based. Particulars: strain CGMCC No.21273 (JD).
In the next assay the test system is strain YT. In words: inhibition of nitrification inhibitors on nitrification activity and growth. Particulars: for inhibition at 5000 µM: Mycobacterium. The class given is cell-based, Mycobacterium sp. The protocol:
The nitrogen contents of the two nitrogen sources were equal in a modified Stephenson medium with (NH4)2SO4 as a nitrogen source (NH4)2SO4 content was 2.0g/L) and a modified Stephenson medium with L-arginine hydrochloride (C6H14N4O2•HCl) as a nitrogen source (C6H14N4O2•HCl content was 1.6 g/L).
When sodium pyruvate was added as a carbon source in the design of a culture medium, 1.0M sodium pyruvate solution (the concentration was calculated in terms of pyruvic acid) was prepared firstly, the pH was adjusted to the range of 7.0-7.2, and the solution was sterilized separately for later use. Before use, 1ml of 1.0M sodium pyruvate solution was added to about 100ml of modified Stevenson culture medium with (NH4)2SO4 as a nitrogen source or L-arginine hydrochloride (C6H14N4O2•HCl) as a nitrogen source, and the pyruvic acid concentration of the culture system was designed to be 0.01M.
Four kinds of nitrification inhibitors 4-amino-1,2,4-triazole (ATC), dicyandiamide (DCD, C2H4N4), aminoguanidine hydrochloride (CH6N4•HCl), and guanylthiourea (C2H6N4S) were selected. The four nitrification inhibitors were prepared with a concentration of 500mM, respectively, after the solutions were filtered and sterilized, 1ml of the four nitrification inhibitors with a concentration of 500mM was added into the two medium with different nitrogen sources, such that the corresponding concentration of each of the nitrification inhibitors in the systems was 5 mM.
Two mediums with different nitrogen sources were respectively subjected to 5 treatments, namely without addition of an inhibitor, adding ATC, adding DCD, adding aminoguanidine hydrochloride, and adding guanylthiourea as shown in the table below; the YT system without addition of an inhibitor and the system without inoculation of strain YT and only addition of an inhibitor were respectively used as a control group; 1ml of PBS-YT bacterial liquid was inoculated, and 1ml of sterile water was used as a substitute when the inoculation of a bacterial strain was not performed. The total volume of each culture system was equal, it was about 100 ml.
1.5 Culture conditions: the culture was performed in a shaking table with a rotational speed of 180rpm at 28°C.
1.6 Measurement and calculation of indicator: the growth OD600 and pH value of thallus in the culture solution were measured every week, the contents of NH4^+-N, NO2^--N and NOx^--N were measured, the inhibition effect of the nitric oxide synthase (nitrification) activity of different culture systems were calculated and compared.
Nitric oxide synthase (nitrification) inhibition rate (%) = (NO2^--NYT concentration - NO2^--Nculture system added with an inhibitor concentration) ×100/ NO2^--NYT concentration

[5] abbreviates: strain YT, L-arginine hydrochloride as nitrogen source, inhibitor 5 mM, 7 days (Table 13c).
The mark [6] stands for this setting: strain YT, L-arginine hydrochloride as nitrogen source, inhibitor 5 mM, 14 days (Table 13c).
Where [7] appears, read: strain YT, L-arginine hydrochloride as nitrogen source, inhibitor 5 mM, 20 days.
The mark [8] stands for this setting: strain YT, L-arginine hydrochloride as nitrogen source, inhibitor 5 mM, 31 days.
Where [9] appears, read: strain YT, ammonium sulfate as nitrogen source, inhibitor 5 mM, 7 days (Table 13c).
The mark [10] stands for this setting: strain YT, ammonium sulfate as nitrogen source, inhibitor 5 mM, 14 days (Table 13c).
[11] abbreviates: strain YT, ammonium sulfate as nitrogen source, inhibitor 5 mM, 20 days.
Where [12] appears, read: strain YT, ammonium sulfate as nitrogen source, inhibitor 5 mM, 31 days.

For D-salicin, the “BIOLOG GEN III (growth experiments) Results” value (“BIOLOG GEN III” below) in assay [1] and in assay [2] was “-” throughout.
For the compound `O=C[C@H](O)[C@@H](O)[C@H](O)[C@H](O)COP(=O)(O)O` [D-glucose-6-phosphoric acid], the “BIOLOG GEN III” value in assay [1] and in assay [2] was “-” throughout.
As for `O=C(CO)[C@@H](O)[C@H](O)[C@H](O)COP(=O)(O)O` [D-fructose-6-phosphoric acid], the “BIOLOG GEN III” value in assay [1] and in assay [2] was “+” in each case.
On to `[Cl-].[Li+]` [Lithium chloride], for which the “BIOLOG GEN II (chemically sensitive experiments) Results” value in assay [3] and in assay [4] was “+” each time.
As to `COC(=O)[C@@H](C)O` [D-methyl lactate], the “BIOLOG GEN III” value in assay [1] and in assay [2] was “-” in each case.
As to Tween 40, the “BIOLOG GEN III” value in assay [1] and in assay [2] was “+” throughout.
On to `O=C(O)C[C@@H](O)C(=O)O` [D-malic acid], for which the “BIOLOG GEN III” value in assay [1] and in assay [2] was “-” each time.
`C[C@H](O)C(=O)O` [L-lactic acid]: the “BIOLOG GEN III” value in assay [1] and in assay [2] was “-” each time.
As for `O=[Te]([O-])[O-].[K+].[K+]` [Potassium tellurite], the “BIOLOG GEN II (chemically sensitive experiments) Results” value in assay [3] and in assay [4] was “+” in each case.
With `O=C(O)CCC(=O)C(=O)O` [α-ketoglutarate], the “BIOLOG GEN III” value in assay [1] and in assay [2] was “+” in each case.
For the compound `CC(O)C(=O)[O-].[Na+]` (stereo not shown) [1 % Sodium lactate, Sodium lactate], the “BIOLOG GEN II (chemically sensitive experiments) Results” value in assay [3] and in assay [4] was “+” each time.
In the case of `CO[C@H]1/C=C/O[C@@]2(C)Oc3c(C)c([O-])c4c(O)c(cc(O)c4c3C2=O)NC(=O)/C(C)=C\C=C\[C@H](C)[C@H](O)[C@@H](C)[C@@H](O)[C@@H](C)[C@H](OC(C)=O)[C@@H]1C.[Na+]` [Rifamycin SV], the “BIOLOG GEN II (chemically sensitive experiments) Results” value in assay [3] and in assay [4] was “+” in each case.
Turning to `OC[C@H]1O[C@H](O[C@H]2[C@H](O)[C@@H](O)[C@H](O)O[C@@H]2CO)[C@H](O)[C@@H](O)[C@@H]1O` [D-maltose], the “BIOLOG GEN III” value in assay [1] and in assay [2] was “-” throughout.
Consider `OC[C@H]1O[C@H](OC[C@H]2O[C@H](O[C@]3(CO)O[C@H](CO)[C@@H](O)[C@@H]3O)[C@H](O)[C@@H](O)[C@@H]2O)[C@H](O)[C@@H](O)[C@H]1O` [D-raffinose], for which the “BIOLOG GEN III” value in assay [1] and in assay [2] was “-” in each case.
In the case of `O=C(O)C[C@H](O)C(=O)O` [L-malic acid], the “BIOLOG GEN III” value in assay [1] and in assay [2] was “+” throughout.
Consider `COc1cc(-c2ccc(-n3nc(-c4ccccc4)n[n+]3-c3ccccc3)c(OC)c2)ccc1-n1nc(-c2ccccc2)n[n+]1-c1ccccc1.[Cl-].[Cl-]` [Tetrazolium blue], for which the “BIOLOG GEN II (chemically sensitive experiments) Results” value in assay [3] and in assay [4] was “-” each time.
As to `OC[C@H]1O[C@H](OCC2O[C@@H](O)[C@H](O)[C@@H](O)[C@@H]2O)[C@H](O)[C@@H](O)[C@H]1O` (stereo partly drawn) [D-melibiose], the “BIOLOG GEN III” value in assay [1] and in assay [2] was “+” in each case.
`CC(O)CC(=O)O` (racemic) [β-hydroxy-D,L-butyric acid]: the “BIOLOG GEN III” value in assay [1] and in assay [2] was “+” each time.
`OC[C@@H](O)C(O)[C@H](O)CO` [D-arabitol]: the “BIOLOG GEN III” value in assay [1] and in assay [2] was “-” in each case.
Turning to `OC[C@H]1O[C@H](OC[C@H]2O[C@H](OC[C@H]3O[C@H](O[C@]4(CO)O[C@H](CO)[C@@H](O)[C@@H]4O)[C@H](O)[C@@H](O)[C@@H]3O)[C@H](O)[C@@H](O)[C@H]2O)[C@H](O)[C@@H](O)[C@H]1O` [Stachyose], the “BIOLOG GEN III” value in assay [1] and in assay [2] was “-” throughout.
For the compound `CO[C@@H]1O[C@H](CO)[C@@H](O)[C@H](O)[C@H]1O` [β-methyl-D-glucoside], the “BIOLOG GEN III” value in assay [1] and in assay [2] was “-” in each case.
For the compound `CCC(O)C(=O)O` (stereo not shown) [A-hydroxybutyr atic acid], the “BIOLOG GEN III” value in assay [1] and in assay [2] was “-” in each case.
In the case of `[Cl-].[Na+]` [1%NaCl, NaCl], the “BIOLOG GEN II (chemically sensitive experiments) Results” value in assay [3] and in assay [4] was “+” throughout.
For the compound `Nn1cnnc1` [ATC, 4-amino-1,2,4-triazole], the inhibition at 5000 µM in the assay on strain YT (168 h, read-out: Nitric oxide synthase (nitrification) activity inhibition rate (%), strain YT, Ammonium sulfate, inhibitor 5 mM, Culture 7 days (Table 13e)) was 100%; in the assay on strain YT (168 h, strain YT, L-arginine hydrochloride, inhibitor 5 mM, Culture 7 days (Table 13e), read-out: Nitric oxide synthase (nitrification) activity inhibition rate (%)), 100%; with strain YT (336 h, read-out: Nitric oxide synthase (nitrification) activity inhibition rate (%), strain YT, Ammonium sulfate, inhibitor 5 mM, Culture 14 days (Table 13e)), 80%; in the assay with strain YT (336 h, strain YT, L-arginine hydrochloride, inhibitor 5 mM, Culture 14 days (Table 13e), read-out: Nitric oxide synthase (nitrification) activity inhibition rate (%)) it was 98.6%; with strain YT (480 h, read-out: Nitric oxide synthase (nitrification) activity inhibition rate (%), strain YT, Ammonium sulfate, inhibitor 5 mM, Culture 20 days) it was 89.4%; in the assay on strain YT (480 h, strain YT, L-arginine hydrochloride, inhibitor 5 mM, Culture 20 days, read-out: Nitric oxide synthase (nitrification) activity inhibition rate (%)), 99.8%. Also, the inhibition at 5000 µM in the assay on strain YT (read-out: Nitric oxide synthase (nitrification) activity inhibition rate (%), strain YT, Ammonium sulfate, inhibitor 5 mM, Culture 31 days) worked out at 25.4%; in the assay on strain YT (strain YT, L-arginine hydrochloride, inhibitor 5 mM, Culture 31 days, read-out: Nitric oxide synthase (nitrification) activity inhibition rate (%)), 99.8%. For the same compound, the “effect on growth of strain YT” value in the assay on strain YT (pure culture with two nitrogen sources, inhibitor 5 mM) was “did not inhibit the growth”. The “effect on nitrification activity of strain YT” value in the assay with strain YT (pure culture, inhibitor 5 mM) is recorded as “always exhibited the inhibiting effect”. Moreover, the “NH4^+-N” value in the assay on strain YT (setting [5]) came out at 15; in the assay on strain YT (setting [6]), 89; in the assay on strain YT (setting [7]), 130; in the assay on strain YT (setting [8]) it was 111; in the assay on strain YT (setting [9]), 419; in the assay on strain YT (setting [10]), 410. For the same compound, the “NH4^+-N” value was determined as 366 in the assay on strain YT (setting [11]) and 382 in the assay on strain YT (setting [12]). Also, the “NO2^--N” value is 0 with strain YT (setting [5]); 0.5 in the assay on strain YT (setting [6]); 0.37 in the assay on strain YT (setting [7]); 0.33 in the assay with strain YT (setting [8]); 0 with strain YT (setting [9]); 0.50 with strain YT (setting [10]). Besides, the “NO2^--N” value is reported as 0.5 with strain YT (setting [11]) and 1.17 with strain YT (setting [12]). The OD600 in the assay with strain YT (setting [5]) was 0.403; with strain YT (setting [6]), 0.394; in the assay with strain YT (setting [7]) it was 0.329; in the assay with strain YT (setting [8]) it was 0.252; with strain YT (setting [9]), 0.214; with strain YT (setting [10]), 0.127. Moreover, the OD600 in the assay on strain YT (setting [11]) is given as 0.133; with strain YT (setting [12]), 0.146.
Regarding `OC[C@H]1O[C@H](O[C@H]2O[C@H](CO)[C@@H](O)[C@H](O)[C@H]2O)[C@H](O)[C@@H](O)[C@@H]1O` [D-trehalose], the “BIOLOG GEN III” value in assay [1] and in assay [2] was “+” throughout.
